Test results reported in patent publication US20090004207A1, “Methods and Compositions for Inhibiting Pathological Angiogenesis in the Eye” (priority 2007, published 2009).

Key:
[1] = system: human COX-2 promoter (phPES2); assay: Human COX-2 promoter (phPES2) luciferase reporter activity in EOMA cells; assay type: cell-based; conditions: mouse hemangioendothelioma cells (EOMA); 100 nM for 5 hours
Experimental: Cells transfected with phPES2(−1432/+59) luciferase reporter were treated with PMA (100 nM, positive control). Results from one representative experiment is shown (*P<0.01, […], n=4).
EOMA cultures (3×10^5 cells/well) on 6-well plate were grown one day before the transfection. To measure transfection efficiency, cells were co-transfected with pCMV-βgal. For each well, 0.3 μg of the luciferase reporter vector phPES2(−1432/+59), 0.3 μg of the gene of interest (pcDNA3.1-S1p2 or pcDNA3.1-S1p1) and 25 ng of pCMV-βgal mixed with Lipofectin 2000 (Invitrogen) were introduced into the cells as described by the manufacturer. 24 hours after transfection, cells were treated with PMA (100 nm) for 5 hours, if necessary. Cells were harvested and luciferase and β-galactosidase activity were determined with Luciferase assay system (Promega) and Western-light and western-star system (Applied Biosystems) respectively. The amount of plasmid DNA was made constant by adding pcDNA 3.1 and luciferase activity was normalized to μg of protein content.
In addition, it was tested if S1P2 receptor can induce the transcription of the COX-2 gene. For this experiment, the human COX-2 promoter (phPES2) driven reporter activity was measured in transfected endothelial cells. […]

[2] = system: Bovine retinal endothelial cells; assay: Boyden chamber cell migration assay, S1P-stimulated; assay type: cell-based; conditions: 1 μM, S1P 100 nM
Experimental: Bovine retinal endothelial cells were tested to see if JTE013, a specific S1P2 receptor antagonist, would influence normal endothelial cell functions, such as cell migration stimulated by S1P. […] In contrast, VPC44116, a specific inhibitor of S1P1 receptor blocked normal endothelial cell migration stimulated by S1P in these cells.

CCCCCCCCCCCCCC(=O)O[C@@H]1[C@@H](C)[C@@]2(O)[C@@H](C=C(CO)C[C@]3(O)C(=O)C(C)=C[C@@H]23)[C@@H]2C(C)(C)[C@]12OC(C)=O [PMA]
induction of phPES2 (−1432/+59) promoter activity [1]: 1.83 fold

CCCCCCCCc1cccc(NC(=O)[C@H](N)CCP(=O)(O)O)c1 [VPC44116]
endothelial cell migration stimulated by S1P [2]: blocked
